Read-outs that look alike come from different tables or passages of the source.
Assays:
Assay in all cases: KinomeScan kinase panel, single concentration 10 µM
Type in all cases: binding
[1] = molecular target: T1, KinomeScan kinase panel (Homo sapiens, UniProt P00519, H396P); conditions: 10 µM, read-out: score (%)
T1 construct: purchased DiscoveRx (KinomeScan)

[2] = molecular target: T2, KinomeScan kinase panel (Homo sapiens, UniProt P37173); conditions: read-out: score (%)
T2 construct: purchased DiscoveRx (KinomeScan)

[3] = molecular target: T3, KinomeScan kinase panel (Homo sapiens, UniProt P50613); conditions: CDK7, 10 µM; read-out: score (%)
T3 construct: purchased DiscoveRx (KinomeScan)

[4] = molecular target: T4, KinomeScan kinase panel (Homo sapiens, UniProt P51955); conditions: NEK2, 10 µM; read-out: score (%)
T4 construct: purchased DiscoveRx (KinomeScan)
T4 sequence (P51955 1-445): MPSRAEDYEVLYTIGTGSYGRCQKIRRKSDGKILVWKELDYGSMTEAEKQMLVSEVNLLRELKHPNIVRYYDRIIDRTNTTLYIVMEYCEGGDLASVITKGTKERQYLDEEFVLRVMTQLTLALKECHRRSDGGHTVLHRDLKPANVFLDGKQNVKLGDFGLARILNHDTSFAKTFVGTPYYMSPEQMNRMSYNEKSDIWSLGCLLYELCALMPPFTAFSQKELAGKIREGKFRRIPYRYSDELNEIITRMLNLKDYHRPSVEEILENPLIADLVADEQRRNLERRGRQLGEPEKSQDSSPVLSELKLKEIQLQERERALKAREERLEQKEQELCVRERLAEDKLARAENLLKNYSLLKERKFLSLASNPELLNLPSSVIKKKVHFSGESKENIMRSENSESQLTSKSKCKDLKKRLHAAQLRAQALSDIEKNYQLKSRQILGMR

[5] = molecular target: T5, KinomeScan kinase panel (Homo sapiens, UniProt Q06187); conditions: BTK, 10 µM
T5 construct: purchased DiscoveRx (KinomeScan)

[6] = molecular target: T6, KinomeScan kinase panel (Homo sapiens, UniProt Q7L7X3); conditions: read-out: score (%)
T6 construct: purchased DiscoveRx (KinomeScan)
T6 sequence (Q7L7X3 1-1001): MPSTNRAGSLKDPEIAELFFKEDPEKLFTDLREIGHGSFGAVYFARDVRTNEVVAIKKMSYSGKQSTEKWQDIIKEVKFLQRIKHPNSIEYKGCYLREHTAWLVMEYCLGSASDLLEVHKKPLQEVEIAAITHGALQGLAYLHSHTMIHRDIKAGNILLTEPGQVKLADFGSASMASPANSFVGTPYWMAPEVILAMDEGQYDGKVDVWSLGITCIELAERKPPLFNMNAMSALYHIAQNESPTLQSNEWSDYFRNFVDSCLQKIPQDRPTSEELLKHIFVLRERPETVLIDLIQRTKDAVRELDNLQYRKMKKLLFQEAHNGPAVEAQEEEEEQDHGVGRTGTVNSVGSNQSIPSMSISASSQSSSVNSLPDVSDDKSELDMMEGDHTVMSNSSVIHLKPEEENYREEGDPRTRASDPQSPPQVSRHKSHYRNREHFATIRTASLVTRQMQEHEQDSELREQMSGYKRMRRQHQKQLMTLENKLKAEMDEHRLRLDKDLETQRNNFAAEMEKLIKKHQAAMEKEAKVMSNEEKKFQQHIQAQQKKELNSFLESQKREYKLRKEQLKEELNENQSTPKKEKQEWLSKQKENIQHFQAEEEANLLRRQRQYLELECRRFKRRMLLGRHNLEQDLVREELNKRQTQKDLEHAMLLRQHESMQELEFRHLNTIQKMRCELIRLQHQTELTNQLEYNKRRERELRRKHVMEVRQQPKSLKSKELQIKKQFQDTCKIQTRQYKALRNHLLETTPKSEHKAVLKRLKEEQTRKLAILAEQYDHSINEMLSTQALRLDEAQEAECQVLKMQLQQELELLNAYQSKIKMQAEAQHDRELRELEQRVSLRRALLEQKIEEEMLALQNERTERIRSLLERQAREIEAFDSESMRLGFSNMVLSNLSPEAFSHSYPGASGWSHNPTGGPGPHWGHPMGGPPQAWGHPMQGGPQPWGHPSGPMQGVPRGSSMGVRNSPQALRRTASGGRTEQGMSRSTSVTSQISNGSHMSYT

[7] = molecular target: T7, KinomeScan kinase panel (Homo sapiens, UniProt Q96RR4); conditions: CAMKK2, 10 µM; read-out: score (%)
T7 construct: purchased DiscoveRx (KinomeScan)

[8] = molecular target: T8, KinomeScan kinase panel (Homo sapiens, UniProt Q9UEE5); conditions: DRAK1, 10 µM; read-out: score (%)
T8 construct: purchased DiscoveRx (KinomeScan)
T8 sequence (Q9UEE5 1-414): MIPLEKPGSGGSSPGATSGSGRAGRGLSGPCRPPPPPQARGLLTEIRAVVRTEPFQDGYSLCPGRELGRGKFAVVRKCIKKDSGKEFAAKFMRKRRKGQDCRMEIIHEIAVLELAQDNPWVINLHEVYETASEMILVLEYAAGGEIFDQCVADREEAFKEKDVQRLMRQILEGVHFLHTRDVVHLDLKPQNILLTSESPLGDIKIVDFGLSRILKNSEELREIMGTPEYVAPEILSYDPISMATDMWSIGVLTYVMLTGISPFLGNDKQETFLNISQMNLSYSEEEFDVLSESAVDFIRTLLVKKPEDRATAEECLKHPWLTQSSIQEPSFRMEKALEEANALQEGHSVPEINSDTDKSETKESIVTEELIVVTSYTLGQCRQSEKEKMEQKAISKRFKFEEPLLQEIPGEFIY

T7 sequence (Q96RR4 whole entry): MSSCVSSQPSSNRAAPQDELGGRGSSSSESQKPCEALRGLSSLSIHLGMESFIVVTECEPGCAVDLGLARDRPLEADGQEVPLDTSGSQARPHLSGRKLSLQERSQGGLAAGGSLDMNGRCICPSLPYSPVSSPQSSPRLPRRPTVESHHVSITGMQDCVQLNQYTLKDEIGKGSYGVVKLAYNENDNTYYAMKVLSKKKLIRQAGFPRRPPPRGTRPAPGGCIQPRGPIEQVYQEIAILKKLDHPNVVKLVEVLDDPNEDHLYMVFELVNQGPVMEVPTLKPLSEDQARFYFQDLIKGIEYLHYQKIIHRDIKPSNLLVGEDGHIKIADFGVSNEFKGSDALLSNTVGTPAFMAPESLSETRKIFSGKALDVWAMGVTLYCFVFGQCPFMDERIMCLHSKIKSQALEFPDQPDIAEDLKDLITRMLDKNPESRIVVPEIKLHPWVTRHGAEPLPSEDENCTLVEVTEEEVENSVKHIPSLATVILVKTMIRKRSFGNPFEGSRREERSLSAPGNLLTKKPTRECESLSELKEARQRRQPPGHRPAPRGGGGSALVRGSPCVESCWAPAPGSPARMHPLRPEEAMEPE
T5 sequence (Q06187 whole entry): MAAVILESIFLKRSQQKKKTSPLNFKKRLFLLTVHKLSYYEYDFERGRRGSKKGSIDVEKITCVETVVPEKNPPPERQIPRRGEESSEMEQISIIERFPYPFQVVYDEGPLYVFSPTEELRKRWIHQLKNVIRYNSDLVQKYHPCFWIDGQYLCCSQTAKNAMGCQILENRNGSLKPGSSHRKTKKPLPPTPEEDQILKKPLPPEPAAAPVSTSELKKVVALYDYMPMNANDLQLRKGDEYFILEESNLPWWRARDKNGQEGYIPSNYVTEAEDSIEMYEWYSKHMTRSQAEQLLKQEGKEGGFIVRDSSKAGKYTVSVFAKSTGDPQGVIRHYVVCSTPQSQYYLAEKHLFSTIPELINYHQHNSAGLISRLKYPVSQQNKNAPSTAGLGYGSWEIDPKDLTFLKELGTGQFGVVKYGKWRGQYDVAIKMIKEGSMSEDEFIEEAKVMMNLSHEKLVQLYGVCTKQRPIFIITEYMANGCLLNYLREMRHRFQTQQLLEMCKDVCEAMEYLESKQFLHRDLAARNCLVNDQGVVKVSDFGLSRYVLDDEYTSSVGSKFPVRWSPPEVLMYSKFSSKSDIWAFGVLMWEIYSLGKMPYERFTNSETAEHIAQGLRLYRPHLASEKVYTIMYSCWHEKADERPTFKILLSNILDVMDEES
T3 sequence (P50613 whole entry): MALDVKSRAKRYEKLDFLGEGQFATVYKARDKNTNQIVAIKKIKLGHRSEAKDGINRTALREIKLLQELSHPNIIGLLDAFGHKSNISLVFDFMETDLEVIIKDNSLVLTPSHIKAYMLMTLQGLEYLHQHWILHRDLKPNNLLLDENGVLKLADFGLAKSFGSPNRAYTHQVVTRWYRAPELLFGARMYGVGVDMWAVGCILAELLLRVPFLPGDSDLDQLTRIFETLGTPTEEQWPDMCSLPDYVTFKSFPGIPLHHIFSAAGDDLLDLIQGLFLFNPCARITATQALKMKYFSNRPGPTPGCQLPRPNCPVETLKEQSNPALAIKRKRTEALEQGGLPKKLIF
T2 sequence (P37173 23-567): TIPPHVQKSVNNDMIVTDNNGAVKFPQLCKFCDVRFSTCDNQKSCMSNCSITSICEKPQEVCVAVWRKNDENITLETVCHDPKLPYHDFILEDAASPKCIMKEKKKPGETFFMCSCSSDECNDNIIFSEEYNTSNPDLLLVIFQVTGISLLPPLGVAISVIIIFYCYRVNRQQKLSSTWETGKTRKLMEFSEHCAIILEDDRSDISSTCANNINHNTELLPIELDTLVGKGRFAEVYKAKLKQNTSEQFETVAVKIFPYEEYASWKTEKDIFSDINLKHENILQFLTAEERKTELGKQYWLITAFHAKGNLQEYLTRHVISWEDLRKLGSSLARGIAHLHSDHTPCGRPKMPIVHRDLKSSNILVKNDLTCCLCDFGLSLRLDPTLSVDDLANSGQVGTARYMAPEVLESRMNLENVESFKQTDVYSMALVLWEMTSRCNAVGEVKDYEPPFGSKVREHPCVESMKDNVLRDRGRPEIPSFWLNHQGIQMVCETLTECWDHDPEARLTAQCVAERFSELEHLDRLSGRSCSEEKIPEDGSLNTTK

| remaining binding at 10 µM ([2]; TGFBR2, 10 µM) [%] | remaining binding at 10 µM ([6]; TAOK1, 10 µM) [%] | Compound | remaining binding at 10 µM ([1]; ABL1(H396P)) [%] | remaining binding at 10 µM ([2]; kinase TGFBR2, 10 µM) [%] | remaining binding at 10 µM [3] [%] | remaining binding at 10 µM [4] [%] | score (%) [5] [%] | remaining binding at 10 µM ([6]; kinase TAOK1, 10 µM) [%] | remaining binding at 10 µM [7] [%] | remaining binding at 10 µM [8] [%] | remaining binding at 10 µM ([1]; ABL1(H396P)-nonphosphorylated) [%] | remaining binding at 10 µM ([1]; ABL1(H396P)-phosphorylated) [%] |
| --- | --- | --- | --- | --- | --- | --- | --- | --- | --- | --- | --- | --- |
| – | – | CCN1CCN(Cc2ccc(NC(=O)c3ccc(C)c(NC(=O)c4cncc(-c5cccs5)c4)c3)cc2C(F)(F)F)CC1 [ALW-II-41-27] | 0.5 | 4.6 | 26 | > 30 | 0.1 | > 30 | > 30 | > 30 | – | – |
| 2.8 | 6.5 | CCN1CCN(Cc2ccc(NC(=O)c3ccc(C)c(/C=C/c4cnc5[nH]ccc5c4Cl)c3)cc2C(F)(F)F)CC1 [HG-6-63-01, (E)-3-(2-(4-chloro-1H-pyrrolo[2,3-b]pyridin-5-yl)vinyl)-N-(4-((4-ethylpiperazin-1-yl)methyl)-3-(trifluoromethyl)phenyl)-4-methylbenzamide] | 0.2 | – | > 30 | > 30 | 3.8 | – | > 30 | 0.35 | – | – |
| – | – | CCN1CCN(Cc2ccc(NC(=O)c3ccc(C)c(C#Cc4cccnc4)c3)cc2C(F)(F)F)CC1 [XMD15-44] | – | 1.3 | 1.6 | > 30 | 2 | 0.25 | 7.8 | > 30 | 0 | 0 |

Reference: PMC4457528, “Identification of Novel Small Molecule Inhibitors of Oncogenic RET Kinase” (PLoS ONE, 2015)
